These results are taken from the kinase profiling compilation of Christmann-Franck et al. (2016).

What all share (assay): radiometric filter-binding kinase assay, Kinase HotSpot
Conditions in all cases: compound 0.5 µM; ATP 10 µM

The test system of assay [1] is MKNK1 (human), Q9BUB5 [T385D; 165-205 del].
Assay [2] concerns FLT4 (human), P35916 [Q890H].
Assay [3] has as its system PRKCQ (human), Q04759 [P330L].
In assay [4] the test system is MAP2K6 (human), P52564 [S207E/T211E].
Sequence of MAP2K6 (human), P52564 [S207E/T211E] (P52564 whole entry S207E/T211E, looked up): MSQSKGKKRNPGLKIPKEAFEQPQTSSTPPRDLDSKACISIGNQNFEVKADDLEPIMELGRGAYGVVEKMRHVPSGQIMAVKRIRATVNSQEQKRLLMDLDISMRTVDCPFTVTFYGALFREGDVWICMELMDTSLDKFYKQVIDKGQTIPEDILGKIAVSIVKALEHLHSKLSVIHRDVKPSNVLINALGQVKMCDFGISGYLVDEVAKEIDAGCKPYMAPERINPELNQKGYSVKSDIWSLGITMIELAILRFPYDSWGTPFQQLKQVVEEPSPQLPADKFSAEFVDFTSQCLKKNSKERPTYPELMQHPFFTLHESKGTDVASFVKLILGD

Sequence of FLT4 (human), P35916 [Q890H] (P35916 whole entry, looked up, stated change not applied): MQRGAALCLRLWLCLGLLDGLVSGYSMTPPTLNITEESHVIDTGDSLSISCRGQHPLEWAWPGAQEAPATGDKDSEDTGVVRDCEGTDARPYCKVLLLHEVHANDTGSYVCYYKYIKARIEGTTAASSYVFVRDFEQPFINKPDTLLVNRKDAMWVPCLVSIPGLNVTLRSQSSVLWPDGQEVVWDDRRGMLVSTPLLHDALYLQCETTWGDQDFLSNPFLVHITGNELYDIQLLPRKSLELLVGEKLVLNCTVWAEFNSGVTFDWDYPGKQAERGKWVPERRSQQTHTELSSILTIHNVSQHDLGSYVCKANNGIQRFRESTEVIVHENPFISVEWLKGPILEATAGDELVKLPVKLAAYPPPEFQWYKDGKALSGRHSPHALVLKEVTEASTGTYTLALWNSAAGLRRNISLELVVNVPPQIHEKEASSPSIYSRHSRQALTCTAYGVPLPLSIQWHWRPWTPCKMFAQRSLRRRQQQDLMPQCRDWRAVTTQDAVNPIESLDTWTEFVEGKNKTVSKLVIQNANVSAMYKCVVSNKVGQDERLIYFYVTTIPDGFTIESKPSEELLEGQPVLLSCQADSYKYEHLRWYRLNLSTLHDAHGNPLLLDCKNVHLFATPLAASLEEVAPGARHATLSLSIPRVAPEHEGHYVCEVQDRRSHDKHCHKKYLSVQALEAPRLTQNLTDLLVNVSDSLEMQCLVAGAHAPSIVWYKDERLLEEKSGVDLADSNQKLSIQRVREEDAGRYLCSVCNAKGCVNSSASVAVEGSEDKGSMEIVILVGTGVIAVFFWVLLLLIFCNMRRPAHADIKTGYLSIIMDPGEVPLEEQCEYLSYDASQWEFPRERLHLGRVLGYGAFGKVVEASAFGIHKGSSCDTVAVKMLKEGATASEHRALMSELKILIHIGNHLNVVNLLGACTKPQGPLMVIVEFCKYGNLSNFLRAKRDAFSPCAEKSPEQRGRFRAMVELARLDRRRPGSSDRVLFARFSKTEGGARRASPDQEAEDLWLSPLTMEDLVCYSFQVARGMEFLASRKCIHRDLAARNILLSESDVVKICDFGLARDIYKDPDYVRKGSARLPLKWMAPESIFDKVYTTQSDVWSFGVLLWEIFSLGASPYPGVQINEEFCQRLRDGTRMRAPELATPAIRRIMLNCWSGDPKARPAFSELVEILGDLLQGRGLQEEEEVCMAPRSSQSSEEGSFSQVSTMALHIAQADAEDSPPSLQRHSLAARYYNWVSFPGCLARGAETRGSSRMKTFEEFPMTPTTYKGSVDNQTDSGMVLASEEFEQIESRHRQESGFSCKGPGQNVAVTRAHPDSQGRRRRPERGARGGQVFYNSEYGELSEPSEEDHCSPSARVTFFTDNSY
Sequence of MKNK1 (human), Q9BUB5 [T385D; 165-205 del] (Q9BUB5 whole entry, looked up, stated change not applied): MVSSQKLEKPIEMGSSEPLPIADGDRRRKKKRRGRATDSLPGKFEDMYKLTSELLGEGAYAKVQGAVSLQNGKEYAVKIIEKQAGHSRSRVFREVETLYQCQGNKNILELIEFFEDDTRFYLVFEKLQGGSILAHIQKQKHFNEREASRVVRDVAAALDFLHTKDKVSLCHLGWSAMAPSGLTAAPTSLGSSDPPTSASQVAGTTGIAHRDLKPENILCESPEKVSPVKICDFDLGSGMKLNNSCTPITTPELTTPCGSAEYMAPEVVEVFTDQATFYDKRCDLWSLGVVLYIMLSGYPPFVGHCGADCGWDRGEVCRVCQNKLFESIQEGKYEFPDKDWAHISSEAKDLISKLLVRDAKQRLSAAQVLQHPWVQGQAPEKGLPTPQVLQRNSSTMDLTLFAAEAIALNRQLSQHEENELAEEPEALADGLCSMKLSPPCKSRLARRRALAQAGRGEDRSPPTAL
Sequence of PRKCQ (human), Q04759 [P330L] (Q04759 whole entry P330L, looked up): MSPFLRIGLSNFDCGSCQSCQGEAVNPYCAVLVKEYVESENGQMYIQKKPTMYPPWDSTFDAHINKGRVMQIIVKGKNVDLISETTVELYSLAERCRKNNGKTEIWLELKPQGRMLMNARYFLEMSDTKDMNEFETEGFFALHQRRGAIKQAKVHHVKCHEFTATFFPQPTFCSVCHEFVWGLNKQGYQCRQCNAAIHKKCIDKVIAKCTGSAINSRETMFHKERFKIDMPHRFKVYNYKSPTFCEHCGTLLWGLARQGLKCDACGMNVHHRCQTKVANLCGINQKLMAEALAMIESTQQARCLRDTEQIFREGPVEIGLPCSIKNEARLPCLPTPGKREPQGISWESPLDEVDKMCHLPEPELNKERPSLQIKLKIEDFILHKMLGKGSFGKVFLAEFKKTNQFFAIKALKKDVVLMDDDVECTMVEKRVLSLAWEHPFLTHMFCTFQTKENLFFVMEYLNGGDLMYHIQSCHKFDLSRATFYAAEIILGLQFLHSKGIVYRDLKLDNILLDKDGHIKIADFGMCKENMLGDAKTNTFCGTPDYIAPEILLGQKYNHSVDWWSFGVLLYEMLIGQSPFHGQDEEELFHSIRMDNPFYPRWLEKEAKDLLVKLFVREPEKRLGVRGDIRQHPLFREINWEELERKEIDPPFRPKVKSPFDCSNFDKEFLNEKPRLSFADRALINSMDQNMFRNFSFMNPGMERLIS

On to `O=C1NC(=O)C(c2cn(CCCO)c3ncccc23)=C1c1cnccn1`, for which the residual activity – broadly, the signal under treatment as a percentage of the control signal – in assay [1] turned out to be 100%; in assay [2], 92.3%; in assay [3] it was 81.7%; in assay [4], 91.1%.
The corresponding values for `O=C1NC(=O)/C(=C\c2ccc3nccnc3c2)S1` are 96.5%, 108%, 92.8% and 91.2%.
The corresponding values for `O=C1Nc2ccccc2/C1=C1/Nc2ccccc2/C1=N\OCCC(O)CO` (stereo not drawn) are 95.3%, 22.3%, 92.9% and 79.7%.
Consider `O=C(CCCc1ccc(-c2ccccc2F)cc1)Nc1ccc(O)cc1`, for which the residual activity in assay [1] was determined as 111%; in assay [2], 99.3%; in assay [3], 107%; in assay [4] it was 97.5%.
The matching figures for `CO[C@H]1CC2CC[C@@H](C)[C@@](O)(O2)C(=O)C(=O)N2CCCC[C@H]2C(=O)OC([C@H](C)C[C@@H]2CC[C@@H](O)[C@H](OC)C2)CC(=O)[C@H](C)/C=C(\C)[C@@H](O)[C@@H](OC)C(=O)[C@H](C)C[C@H](C)/C=C/C=C/C=C/1C` (stereo partly drawn): 101%, 116%, 126% and 107%.
The matching figures for `CC[n+]1c(/C=C/N(C)c2ccccc2)n(-c2ccccc2)c2ccc(-c3nc4ccccc4s3)cc21`: 102%, 90.9%, 94.6% and 103%.
In the case of `O=C(O)/C=C/c1cc(Br)c(Br)c(Br)c1Br`, the residual activity in assay [1] was determined as 61.1%; in assay [2], 98.2%; in assay [3] it was 89.6%; in assay [4] it was 96.1%.
The matching figures for `c1ccc(-c2n[nH]cc2-c2ccnc3ccccc23)nc1`: 75.9%, 92.2%, 115% and 138%.
The corresponding values for `COc1cc2c(N3CCN(C(=O)Nc4ccc(OC(C)C)cc4)CC3)ncnc2cc1OCCCN1CCCCC1` are 89.7%, 94.6%, 103% and 102%.
The corresponding values for `O=C(O)c1ccc2c3c1cccc3c(=O)n1c3ccccc3nc21` are 60.3%, 82.5%, 117% and 103%.
On to `O=C1Nc2cc(Br)ccc2/C1=C1/Nc2ccccc2/C1=N\O`, for which the residual activity in assay [1] came to 102%; in assay [2] it was 50.8%; in assay [3], 105%; in assay [4], 98.2%.
The matching figures for `Cn1cnc2cc3c(Nc4cccc(Br)c4)ncnc3cc21`: 39.9%, 89.7%, 96.9% and 104%.
The corresponding values for `CN(C)C[C@H]1CCn2c(c(C3=C(c4cn(C)c5ccccc45)C(=O)NC3=O)c3ccccc32)C1` are 100%, 114%, 12.7% and 109%.
Consider `C#Cc1cccc(Nc2ncnc3cc(OCCOC)c(OCCOC)cc23)c1`, for which the residual activity in assay [3] worked out at 77.2%; in assay [4], 94.2%.
Regarding `Nc1nccc(-c2c(-c3ccc(F)cc3)ncn2C2CCNCC2)n1`, the residual activity in assay [1] stood at 99%; in assay [2], 116%; in assay [3] it was 107%; in assay [4], 106%.
The corresponding values for `CCN(CC)CCCCN1c2ccccc2Oc2ccc(Cl)cc21` are 95.6%, 98.8%, 97.5% and 102%.
The corresponding values for `Oc1ccc(-c2nc(-c3ccc(F)cc3)c(-c3ccncc3)[nH]2)cc1` are 102%, 101%, 115% and 109%.
The corresponding values for `O=C1Cc2c([nH]c3ccc([N+](=O)[O-])cc23)-c2ccccc2N1` are 76.9%, 77.8%, 98.2% and 98.3%.
In the case of `Nc1cccc(-c2cc3c(Oc4cccc(O)c4)ncnc3[nH]2)c1`, the residual activity amounted to 87.6% in assay [1], 15.8% in assay [2], 64.5% in assay [3] and 90.1% in assay [4].
Take `Cn1nc2c3c(cccc31)C(=O)c1ccccc1-2`: the residual activity turned out to be 105% in assay [1], 86.8% in assay [2], 106% in assay [3] and 96.4% in assay [4].
Turning to `Oc1cccc(-c2nc(N3CCOCC3)c3oc4ncccc4c3n2)c1`, the residual activity in assay [1] turned out to be 102%; in assay [2], 104%; in assay [3] it was 105%; in assay [4], 86.6%.
The corresponding values for `Cn1cc(/C=C2\C(=O)Nc3ccc(S(N)(=O)=O)cc32)c2ccccc21` are 74.1%, 65.1%, 103% and 116%.
The matching figures for `COc1cc2ncnc(N3CCN(C(=O)Nc4ccc(Oc5ccccc5)cc4)CC3)c2cc1OC`: 94.9%, 101%, 97.3% and 96%.
Regarding `Cn1sc(=O)n(Cc2ccccc2)c1=O`, the residual activity in assay [1] was 98.6%; in assay [2], 86.8%; in assay [3], 100%; in assay [4], 94.9%.
The corresponding values for `O=C1NC(=O)/C(=C/c2ccc3c(c2)OC(F)(F)O3)S1` are 93.1%, 107%, 101% and 92.3%.
The corresponding values for `COc1cc2c(cc1OC)-c1[nH]nc(Nc3cccc(F)c3)c1C2` are 89.8%, 82.6%, 108% and 87%.
The matching figures for `CN([C@@H](Cc1ccc(OS(=O)(=O)c2cccc3cnccc23)cc1)C(=O)N1CCN(c2ccccc2)CC1)S(=O)(=O)c1cccc2cnccc12`: 106%, 90.5%, 108% and 104%.
As to `O=C(Nc1cccc(Nc2cc(Nc3cccc(C(F)(F)F)c3)ncn2)c1)C1CC1`, the residual activity in assay [1] worked out at 96.7%; in assay [2] it was 107%; in assay [3] it was 87.8%; in assay [4], 108%.
The corresponding values for `O=C1NC(=O)C(c2cn(CCCn3ccnc3)c3ccccc23)=C1Nc1ccccc1` are 99.3%, 95.8%, 37.2% and 103%.
As to `N#CCCc1ccc2c(c1)-c1[nH]c3ccc([N+](=O)[O-])cc3c1CC(=O)N2`, the residual activity in assay [1] was 66.7%; in assay [2], 66.5%; in assay [3], 111%; in assay [4], 97.2%.
The corresponding values for `CC(C)[C@H](CO)Nc1nc(Nc2cc(N)cc(Cl)c2)c2ncn(C(C)C)c2n1` are 99.1%, 80.7%, 119% and 92.5%.
The matching figures for `COc1ccc(OC)c2c(=S)c3ccccc3[nH]c12`: 115%, 98.1%, 98.9% and 89.9%.
`O=S(=O)(c1cccc2cnccc12)N1CCCNCC1`: the results for the residual activity in assay [1], in assay [3] and in assay [4] were 91.8%, 89.9% and 95.6%, respectively.
Regarding `COc1cccc(-c2cc(=O)c3ccccc3o2)c1N`, the residual activity in assay [1] worked out at 95.4%; in assay [2], 90.8%; in assay [3] it was 103%; in assay [4], 92.4%.
Take `Clc1ccc(Nc2nnc(Cc3ccncc3)c3ccccc23)cc1`: the residual activity was 98.5% in assay [1], 62.8% in assay [2], 73.5% in assay [3] and 95.3% in assay [4].
The matching figures for `N#C/C(=C(/N)Sc1ccc(N)cc1)c1ccccc1C(F)(F)F`: 103%, 99.8%, 104% and 97.5%.
The matching figures for `Nc1nnc2[nH]c3ccccc3nc1-2`: 97.4%, 117%, 89.7% and 100%.
Regarding `Nc1n[nH]c2nnc(-c3c(-c4ccccc4)nn4ccccc34)cc12`, the residual activity in assay [1] was 98.5%; in assay [2], 89.9%; in assay [3], 79.9%; in assay [4], 90.9%.
In the case of `Cc1ccc(Nc2nccc(N(C)c3ccc4c(C)n(C)nc4c3)n2)cc1S(N)(=O)=O`, the residual activity stood at 102% in assay [1], 93.1% in assay [3] and 98.3% in assay [4].
`N#Cc1c(NC(=O)c2cccc3ccccc23)sc2c1CCCC2`: the figures for the residual activity in assay [1], in assay [2] and in assay [4] were 106%, 89.8% and 98.1%, respectively.
As to `CCN(CC)CCNC(=O)c1c(C)[nH]c(/C=C2\C(=O)Nc3ccc(F)cc32)c1C`, the residual activity in assay [1] was determined as 99.3%; in assay [3], 63.5%; in assay [4], 75.9%.
